Experiments:
Panicum maximum seeds = assay: Germination of Panicum maximum seeds (Example 6); format: in vivo, Panicum maximum cv. Tanzania; conditions: scarified seeds
[1] = tested on: Brachiaria dictyoneura seeds; assay: Germination test of Brachiaria dictyoneura seeds after scarification, nitrate soaking and GA (Example 2); format: in vivo
Excerpt: The seeds (two replicates of 100 seeds) were sown on a soil substrate with the same growth conditions described above.

Paspalum notatum seeds [2] = assay: Germination of Paspalum notatum seeds, lot of 1997 (Example 4); format: in vivo, Paspalum notatum (cv. Pensacola)
[3] = tested on: Brachiaria brizantha seeds; assay: Germination test of acid-scarified Brachiaria brizantha seeds on soil or paper substrate (Example 3); format: in vivo
Experimental: Effect of nitrate on a lot of acid-scarified Brachiaria brizantha imported from Brazil in July 2001, shortly after harvesting from the soil surface, using different substrates for the germination test.
The seeds were treated on Aug. 15, 2001 and after drying, samples were taken and tested for germination on Aug. 24, 2001. The soil substrate was maintained at the same moisture level throughout the test by weight. The paper substrate was maintained moist by irrigation from below, using a piece of plastic foam to separate the paper from the water in the base of the tray.

Paspalum notatum seeds [4] = assay: Germination of Paspalum notatum seeds, lot of 2001 (Example 5); format: in vivo, Paspalum notatum cv Pensacola; conditions: one scarification and aerated nitrate treatment
[5] = tested on: Brachiaria dictyoneura seeds; assay: Germination test of Brachiaria dictyoneura seeds after scarification and aerated nitrate treatment (Example 1); format: in vivo; conditions: for % Germination 7 days (paper + water): paper substrate irrigated with water, after 7 months storage
Experimental: The tank is filled with an approximately 0.2% solution of potassium nitrate 16 in water, to level which will ensure that the seed-containing bags are just immersed. The seeds 15 are immersed at ambient temperature for about 10 to about 36 hours, during which time the tank is constantly aerated by a flow of air form the compressed air source through the perforated pipe 12. The bags are then removed form the tank 10 and allowed to drain for about 12 hours. If the seed being treated requires addition of further agents such as gibberellic acid or smoke extract, then suitable quantities of these ingredients in solution are poured over the draining seed, and mixed by hand. The seeds are then dried to between 8% and 14% moisture content, preferably 12% moisture content, and stored as required.
A lot of Brachiaria dictyoneura seeds were harvested manually (by cutting the panicle and sweating for six days in heaps, and then threshing) in Zapote, Pérez Zeledón, Costa Rica, in July 2000. The seeds were dried in the shade, classified to remove waste and stored at 15° C. and 60% relative humidity for six months. A 30 kg sample of this seed lot was then scarified for 30 minutes with concentrated sulphuric acid on Jan. 4, 2001. The seeds were dried to 12% moisture and then re-scarified for a further 15 minutes on Feb. 26, 2001. After the second scarification the seeds were soaked in potassium nitrate for 24 hours and drained for 12 hours by the process described above.
Small 50 g sub-samples of the same seed lot were also taken, some of which were scarified once or twice but not treated, and some of which only received the first 30-minute scarification, but were treated. The seeds were then dried carefully in the sun until they reached the 12% moisture content. A sample of the nitrate treated, double scarified seed was tested for germination on Mar. 8, 2001, using 3 replicates of […] pure seeds on a soil-based substrate, at approximately 35° C. during the day, and 15° C. during the night, with florescent and incandescent lighting during the day (12 hours), in closed plastic germination trays. The result was 79% germination after 26 days. The four samples were then stored for a further 7 months when the following germination test was carried out on Nov. 17, 2001, using 4 replicates of 100 seeds on a paper substrate irrigated with water, and the same growth conditions described above.

Compound: O=[N+]([O-])[O-].[K+] [Nitrate, potassium nitrate]
- % Germination (Panicum maximum seeds): 50.0%
- % Germination 15 days (soil substrate) ([1]; Scarification once (20 minutes)): 42.5b %
- % Germination 15 days (soil substrate) ([1]; Scarification twice (20 + 10 minutes)): 65.0c %
- % Germination (Paspalum notatum seeds [2]; Scarification 10 minutes): 64.8%
- % Germination (Paspalum notatum seeds [2]; Scarification 20 minutes): 63.5%
- % Germination 7 days ([3]; Paper substrate): 77cd %
- % Germination 25 days ([3]; Paper substrate): 82cde %
- % Germination 7 days ([3]; Soil substrate): 88de %
- % Germination 25 days ([3]; Soil substrate): 90e %
- % Germination (Paspalum notatum seeds [4]): 79.0%
- % Germination 7 days (paper + water) ([5]; Scarified once, listed as Aerated nitrate treatment): 87.25c %
- % Germination 7 days (paper + water) ([5]; Scarified once, listed as aerated nitrate treatment): 87%
- % Germination 7 days (paper + water) ([5]; Scarified twice, listed as Aerated nitrate treatment): 93.00c %
- % Germination 7 days (paper + water) ([5]; Scarified twice, listed as aerated nitrate treatment): 93%
- germination after 26 days ([5]; double scarified seed, soil-based substrate, tested Mar. 8, 2001): 79%
- seedling vigor ([5]; seedlings from treated seeds versus untreated): greater vigor
- increase in germination due to nitrate treatment ([5]; seeds scarified once): 30%
- increase in germination due to nitrate treatment ([5]; seeds scarified twice): 20%
